Measured values reported in US12098144B2, “Piperazine indazole glucocorticoid receptor antagonists” (Corcept Therapeutics Incorporated, priority 2021, dated 2024).

Target: T1, glucocorticoid receptor (Homo sapiens, UniProt P04150)
T1 construct: endogenous in cells; ATCC cat
T1 sequence (P04150 1-777): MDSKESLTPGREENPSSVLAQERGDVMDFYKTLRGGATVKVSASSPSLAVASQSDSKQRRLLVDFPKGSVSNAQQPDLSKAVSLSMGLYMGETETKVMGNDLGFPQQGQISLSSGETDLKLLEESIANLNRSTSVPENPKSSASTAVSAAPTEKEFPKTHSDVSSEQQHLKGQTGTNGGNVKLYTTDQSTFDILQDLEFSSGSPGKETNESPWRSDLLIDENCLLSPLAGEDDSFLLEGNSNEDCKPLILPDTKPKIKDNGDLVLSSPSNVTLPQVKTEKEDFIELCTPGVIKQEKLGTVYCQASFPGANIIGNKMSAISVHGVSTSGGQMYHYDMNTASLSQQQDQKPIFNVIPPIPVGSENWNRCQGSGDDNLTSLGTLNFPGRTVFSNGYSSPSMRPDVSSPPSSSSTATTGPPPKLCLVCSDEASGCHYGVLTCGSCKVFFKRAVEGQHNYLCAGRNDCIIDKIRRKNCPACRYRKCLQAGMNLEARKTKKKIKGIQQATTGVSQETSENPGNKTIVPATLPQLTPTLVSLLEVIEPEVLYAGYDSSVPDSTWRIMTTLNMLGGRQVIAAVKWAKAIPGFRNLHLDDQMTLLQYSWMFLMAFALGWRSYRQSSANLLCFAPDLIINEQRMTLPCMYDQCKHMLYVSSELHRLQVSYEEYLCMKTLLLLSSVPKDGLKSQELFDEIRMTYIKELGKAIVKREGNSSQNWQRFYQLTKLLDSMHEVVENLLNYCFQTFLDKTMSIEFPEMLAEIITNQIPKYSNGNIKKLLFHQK
Test: Hep G2 TAT Ki: inhibition of dexamethasone-induced TAT in HepG2 cells (96 well)
Assay type: cell-based
Details: challenge of 100 nM dexamethasone, IC50 converted to Ki by Cheng and Prusoff equation
Procedure, shortened: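 Cells lysed 15 min at 4 °C; TAT enzyme reaction 2 h at 37 °C, stopped with KOH, 30 min further at 37 °C. Inhibition fitted to 4-parameter logistic.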

Row | Ki | SMILES
1 | 180 nM | Cc1cc2c(cnn2-c2ccc(F)cc2)cc1C1CN(S(=O)(=O)c2cnn(C)n2)CCN1c1ccccc1 (centres unmarked) [Example 86, 1-(4-fluorophenyl)-6-methyl-5-(4-((2-methyl-2H-1,2,3-triazol-4-yl)sulfonyl)-1-phenylpiperazin-2-yl)-1H-indazole]
2 | 46 nM | Cc1cc2c(cnn2-c2ccc(F)cc2)cc1C1CN(S(=O)(=O)c2cccnc2C(F)(F)F)CCN1CC(C)C (single isomer, unassigned) [Example 105, 1-(4-fluorophenyl)-5-(1-isobutyl-4-((2-(trifluoromethyl)pyridin-3-yl)sulfonyl)piperazin-2-yl)-6-methyl-1H-indazole]
3 | 57 nM | Cc1cc2c(cnn2-c2ccc(F)cc2)cc1C1CN(S(C)(=O)=O)CCN1CC(C)C (centres unmarked) [Example 39, 1-(4-fluorophenyl)-5-(1-isobutyl-4-(methylsulfonyl)piperazin-2-yl)-6-methyl-1H-indazole]
4 | 140 nM | Cc1cc2c(cnn2-c2ccc(F)cc2)cc1C1CN(S(=O)(=O)c2cnn(C)n2)CCN1C(C)C (centres unmarked) [Example 19, 1-(4-fluorophenyl)-5-(1-isopropyl-4-((2-methyl-2H-1,2,3-triazol-4-yl)sulfonyl)piperazin-2-yl)-6-methyl-1H-indazole]
5 | 100 nM | Cc1cc2c(cnn2-c2ccc(F)cc2)cc1C1CN(S(=O)(=O)c2cnn(CC(F)(F)F)n2)CCN1CC(C)C (single isomer, unassigned) [Example 95, 1-(4-fluorophenyl)-5-(1-isobutyl-4-((2-(2,2,2-trifluoroethyl)-2H-1,2,3-triazol-4-yl)sulfonyl)piperazin-2-yl)-6-methyl-1H-indazole]
6 | 35 nM | Cc1cc2c(cnn2-c2ccc(F)cc2)cc1C1CN(S(=O)(=O)c2cnccc2C)CCN1CCC(F)(F)F (single isomer, unassigned) [Example 138, 1-(4-fluorophenyl)-6-methyl-5-(4-((4-methylpyridin-3-yl)sulfonyl)-1-(3,3,3-trifluoropropyl)piperazin-2-yl)-1H-indazole]
7 | 260 nM | Cc1cc2c(cnn2-c2ccc(F)cc2)cc1C1CN(S(=O)(=O)c2cnn(C)n2)CCN1CC(C)(C)O (centres unmarked) [Example 162, 1-(2-(1-(4-fluorophenyl)-6-methyl-1H-indazol-5-yl)-4-((2-methyl-2H-1,2,3-triazol-4-yl)sulfonyl)piperazin-1-yl)-2-methylpropan-2-ol]
8 | 13 nM | Cc1cc2c(cnn2-c2ccc(F)cc2)cc1[C@@H]1CN(S(=O)(=O)c2cnn(C)n2)CCN1CC(C)C(F)(F)F (single isomer, unassigned) [Example 23]
9 | 19 nM | Cc1cc2c(cnn2-c2ccc(F)cc2)cc1[C@@H]1CN(S(=O)(=O)c2cnn(C)n2)CCN1C[C@@H](C)C(F)(F)F [Example 32, 1-(4-fluorophenyl)-6-methyl-5-((R)-4-((2-methyl-2H-1,2,3-triazol-4-yl)sulfonyl)-1-((R)-3,3,3-trifluoro-2-methylpropyl)piperazin-2-yl)-1H-indazole]
10 | 50 nM | Cc1cc2c(cnn2-c2ccc(F)cc2)cc1C1CN(S(=O)(=O)c2cnn(C)c2)CCN1CC(C)C (single isomer, unassigned) [Example 64, 1-(4-fluorophenyl)-5-(1-isobutyl-4-((1-methyl-1H-pyrazol-4-yl)sulfonyl)piperazin-2-yl)-6-methyl-1H-indazole]
11 | 33 nM | Cc1cc2c(cnn2-c2ccc(F)cc2)cc1C1CN(S(=O)(=O)CC(C)C)CCN1CCC(F)(F)F (single isomer, unassigned) [Example 137, 1-(4-fluorophenyl)-5-(4-(isobutylsulfonyl)-1-(3,3,3-trifluoropropyl)piperazin-2-yl)-6-methyl-1H-indazole]
12 | 74 nM | Cc1cc2c(cnn2-c2ccc(F)cc2)cc1C1CN(S(=O)(=O)c2nncn2C)CCN1CC(C)C (single isomer, unassigned) [Example 94, 1-(4-fluorophenyl)-5-(1-isobutyl-4-((4-methyl-4H-1,2,4-triazol-3-yl)sulfonyl)piperazin-2-yl)-6-methyl-1H-indazole]
13 | 170 nM | Cc1cc2c(cnn2-c2ccc(F)cc2)cc1C1CN(S(=O)(=O)c2cnn(C)n2)CCN1Cc1ccccn1 (centres unmarked) [Example 70, 1-(4-fluorophenyl)-6-methyl-5-(4-((2-methyl-2H-1,2,3-triazol-4-yl)sulfonyl)-1-(pyridin-2-ylmethyl)piperazin-2-yl)-1H-indazole]
14 | 62 nM | Cc1cc2c(cnn2-c2ccc(F)cc2)cc1C1CN(S(=O)(=O)c2cnn(C)n2)CCN1CC1CC1C (centres unmarked) [Example 14, 1-(4-fluorophenyl)-6-methyl-5-(4-((2-methyl-2H-1,2,3-triazol-4-yl)sulfonyl)-1-((2-methylcyclopropyl)methyl)piperazin-2-yl)-1H-indazole]
15 | 23 nM | COCCn1cc(S(=O)(=O)N2CCN(CC(C)C)C(c3cc4cnn(-c5ccc(F)cc5)c4cc3C)C2)cn1 (single isomer, unassigned) [Example 47, 1-(4-fluorophenyl)-5-(1-isobutyl-4-((1-(2-methoxyethyl)-1H-pyrazol-4-yl)sulfonyl)piperazin-2-yl)-6-methyl-1H-indazole]
16 | 22 nM | Cc1cc2c(cnn2-c2ccc(F)cc2)cc1C1CN(S(=O)(=O)c2cccnc2C#N)CCN1CC(C)C (single isomer, unassigned) [Example 107, 3-((3-(1-(4-fluorophenyl)-6-methyl-1H-indazol-5-yl)-4-isobutylpiperazin-1-yl)sulfonyl)picolinonitrile]
17 | 19 nM | Cc1nc(S(=O)(=O)N2CCN(CC(C)C)C(c3cc4cnn(-c5ccc(F)cc5)c4cc3C)C2)cs1 (single isomer, unassigned) [Example 99, 4-((3-(1-(4-fluorophenyl)-6-methyl-1H-indazol-5-yl)-4-isobutylpiperazin-1-yl)sulfonyl)-2-methylthiazole]
18 | 90 nM | Cc1cc2c(cnn2-c2ccc(F)cc2)cc1C1CN(S(C)(=O)=O)CCN1CC1CCOCC1 (single isomer, unassigned) [Example 30, 1-(4-fluorophenyl)-6-methyl-5-(4-(methylsulfonyl)-1-((tetrahydro-2H-pyran-4-yl)methyl)piperazin-2-yl)-1H-indazole]
19 | 34 nM | Cc1cc2c(cnn2-c2ccc(F)cc2)cc1C1CN(S(=O)(=O)c2cnn(C)n2)C(C)CN1CC(C)C (centres unmarked) [Example 89, 1-(4-fluorophenyl)-5-(1-isobutyl-5-methyl-4-((2-methyl-2H-1,2,3-triazol-4-yl)sulfonyl)piperazin-2-yl)-6-methyl-1H-indazole]
20 | 20 nM | CCn1cc(S(=O)(=O)N2CCN(CC(C)C)C(c3cc4cnn(-c5ccc(F)cc5)c4cc3C)C2)nn1 (single isomer, unassigned) [Example 63, 5-(4-((1-ethyl-1H-1,2,3-triazol-4-yl)sulfonyl)-1-isobutylpiperazin-2-yl)-1-(4-fluorophenyl)-6-methyl-1H-indazole]
21 | 33 nM | Cc1cc2c(cnn2-c2ccc(F)cc2)cc1C1CN(S(=O)(=O)c2cnn(C)n2)CCN1CC1(C(F)(F)F)CC1 (single isomer, unassigned) [Example 83, 1-(4-fluorophenyl)-6-methyl-5-(4-((2-methyl-2H-1,2,3-triazol-4-yl)sulfonyl)-1-((1-(trifluoromethyl)cyclopropyl)methyl)piperazin-2-yl)-1H-indazole]
22 | 40 nM | Cc1cc2c(cnn2-c2ccc(F)cc2)cc1C1CN(S(=O)(=O)c2ccn(C)n2)CCN1CC(C)C (centres unmarked) [Example 42, 1-(4-fluorophenyl)-5-(1-isobutyl-4-((1-methyl-1H-pyrazol-3-yl)sulfonyl)piperazin-2-yl)-6-methyl-1H-indazole]
23 | 38 nM | Cc1cc2c(cnn2-c2ccc(F)cc2)cc1C1CN(S(=O)(=O)c2ccc(C#N)nc2)CCN1CC(C)C (single isomer, unassigned) [Example 117, 5-((3-(1-(4-fluorophenyl)-6-methyl-1H-indazol-5-yl)-4-isobutylpiperazin-1-yl)sulfonyl)picolinonitrile]
24 | 160 nM | Cc1ccccc1CN1CCN(S(=O)(=O)c2cnn(C)n2)CC1c1cc2cnn(-c3ccc(F)cc3)c2cc1C (centres unmarked) [Example 71, 1-(4-fluorophenyl)-6-methyl-5-(4-((2-methyl-2H-1,2,3-triazol-4-yl)sulfonyl)-1-(2-methylbenzyl)piperazin-2-yl)-1H-indazole]
25 | 260 nM | CCN1CCN(S(=O)(=O)c2cnn(C)n2)CC1c1cc2cnn(-c3ccc(F)cc3)c2cc1C (centres unmarked) [Example 15, 5-(1-ethyl-4-((2-methyl-2H-1,2,3-triazol-4-yl)sulfonyl)piperazin-2-yl)-1-(4-fluorophenyl)-6-methyl-1H-indazole]
26 | 72 nM | COCCn1cc(S(=O)(=O)N2CCN(CC(C)C)C(c3cc4cnn(-c5ccc(F)cc5)c4cc3C)C2)cn1 (centres unmarked) [Example 9, 1-(4-fluorophenyl)-5-(1-isobutyl-4-((1-(2-methoxyethyl)-1H-pyrazol-4-yl)sulfonyl)piperazin-2-yl)-6-methyl-1H-indazole]
